Experimental findings from PMC7303061, “Alternaria toxins as casein kinase 2 inhibitors and possible consequences for estrogenicity: a hybrid in silico/in vitro study” (Archives of Toxicology, 2020) are described below.

The target of experiment [1] is T1, casein kinase 2 (CK2α1) (Homo sapiens, UniProt P68400).
T1 construct: gene CSNK2A1; recombinant CK2α1
Nature of the experiment: cell-free ADP-Glo kinase assay with recombinant CK2α[…] and casein, […] ATP. It counts as biochemical.

Experiment [2] addresses T1, casein kinase 2 (CK2α1). Nature of the experiment: cell-free ADP-Glo kinase assay, single concentration ([…]) positive control. It counts as biochemical.

Like-named read-outs stand apart in the source and are kept apart here.

T1 sequence (P68400 whole entry): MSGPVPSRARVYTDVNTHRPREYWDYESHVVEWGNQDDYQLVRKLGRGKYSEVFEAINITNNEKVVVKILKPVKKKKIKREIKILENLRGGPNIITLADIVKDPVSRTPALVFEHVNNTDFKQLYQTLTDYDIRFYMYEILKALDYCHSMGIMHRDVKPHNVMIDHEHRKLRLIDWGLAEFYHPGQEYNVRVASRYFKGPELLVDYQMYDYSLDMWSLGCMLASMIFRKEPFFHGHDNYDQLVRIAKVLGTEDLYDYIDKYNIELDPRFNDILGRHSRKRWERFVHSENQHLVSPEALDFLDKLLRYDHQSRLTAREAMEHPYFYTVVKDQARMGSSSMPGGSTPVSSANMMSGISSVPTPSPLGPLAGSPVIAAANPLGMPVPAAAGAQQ

Consider `Cc1cc(O)cc2oc(=O)c3c(O)cc(O)cc3c12` [AOH, alternariol], for which, on casein kinase 2 (CK2α1) [1], the IC50 is 707 nM. Turning to `O=C1CC[C@]2(O)c3c(ccc(O)c31)-c1ccc(O)c3c1C2[C@H]1O[C@H]1C3=O` (stereo partly drawn) [ATX-II, altertoxin II], on casein kinase 2 (CK2α1) [1] (read-out: IC50), the IC50 stood at 5100 nM.

With `O=c1c(O)c(-c2ccc(O)c(O)c2)oc2cc(O)cc(O)c12` [QUE, quercetin], at 10 µM the inhibition against casein kinase 2 (CK2α1) [2] was 94%.
